In patent publication US7662832B2, “Pyrrolo[2,3-c]pyridine derivatives and processes for the preparation thereof” (priority 2004, dated 2010) one finds IC50 data, which are given here for 34 compounds.

Where a name gives a salt, the structure may show the parent alone.

Sequence of Proton Pump (H^+/K^+-ATPase) (P19156 2-1034 limits assumed): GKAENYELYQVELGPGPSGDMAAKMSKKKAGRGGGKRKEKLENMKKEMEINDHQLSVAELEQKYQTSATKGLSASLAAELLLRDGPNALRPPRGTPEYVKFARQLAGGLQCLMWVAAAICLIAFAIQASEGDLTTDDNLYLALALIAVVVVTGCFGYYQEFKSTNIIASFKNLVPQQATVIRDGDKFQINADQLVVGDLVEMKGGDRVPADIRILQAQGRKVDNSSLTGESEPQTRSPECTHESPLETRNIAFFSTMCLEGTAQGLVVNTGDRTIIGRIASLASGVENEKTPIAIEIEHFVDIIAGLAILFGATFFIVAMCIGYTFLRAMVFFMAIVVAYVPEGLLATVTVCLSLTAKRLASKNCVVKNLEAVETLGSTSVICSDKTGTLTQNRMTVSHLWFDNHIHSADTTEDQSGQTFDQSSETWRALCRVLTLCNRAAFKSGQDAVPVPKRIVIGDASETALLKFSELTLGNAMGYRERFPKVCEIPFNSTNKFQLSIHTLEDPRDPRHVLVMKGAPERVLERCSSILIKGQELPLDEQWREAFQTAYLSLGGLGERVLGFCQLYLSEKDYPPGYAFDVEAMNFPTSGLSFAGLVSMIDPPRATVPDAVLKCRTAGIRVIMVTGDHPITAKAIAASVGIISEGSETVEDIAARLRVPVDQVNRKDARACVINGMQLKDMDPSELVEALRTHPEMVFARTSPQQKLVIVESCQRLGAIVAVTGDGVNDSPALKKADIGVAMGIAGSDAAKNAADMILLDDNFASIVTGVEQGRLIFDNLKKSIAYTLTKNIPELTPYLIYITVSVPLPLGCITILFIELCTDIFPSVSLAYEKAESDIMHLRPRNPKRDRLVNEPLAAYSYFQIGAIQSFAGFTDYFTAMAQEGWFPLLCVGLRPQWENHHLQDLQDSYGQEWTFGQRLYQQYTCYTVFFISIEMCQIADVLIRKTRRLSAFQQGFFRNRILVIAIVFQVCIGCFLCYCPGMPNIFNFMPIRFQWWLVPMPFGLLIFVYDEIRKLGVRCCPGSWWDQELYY
Sequence of Proton Pump (H^+/K^+-ATPase) (P18434 whole entry partner): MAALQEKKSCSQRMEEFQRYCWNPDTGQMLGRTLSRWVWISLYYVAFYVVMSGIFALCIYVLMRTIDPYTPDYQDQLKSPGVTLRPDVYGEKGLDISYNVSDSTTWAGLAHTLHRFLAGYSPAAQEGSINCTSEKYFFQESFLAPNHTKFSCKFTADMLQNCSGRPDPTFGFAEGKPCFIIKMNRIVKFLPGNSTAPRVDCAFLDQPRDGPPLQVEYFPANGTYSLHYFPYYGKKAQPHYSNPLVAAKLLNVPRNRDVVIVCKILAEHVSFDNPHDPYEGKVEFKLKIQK

This assay addresses Proton Pump (H^+/K^+-ATPase) (Sus scrofa, UniProt P19156). The assay is described as follows: Inhibitory effects on proton pump (H^+/K^+-ATPase) activity. The format is biochemical. The settings on record: hog gastric vesicles; K^+ stimulated H^+/K^+-ATPase activity; 30 minutes at 37° C.
By IC50 is commonly meant the concentration that gives 50% inhibition. A high value points to weaker potency in that assay. For `Cc1c(C)n(CC2CC2)c2c(N3CCc4ccccc4C3)nc(C(=O)N3CCNCC3)cc12` [Example 816, [1-cyclopropylmethyl-7-(3,4-dihydro-1H-isoquinolin-2-yl)-2,3-dimethyl-1H-pyrrolo[2,3-c]pyridin-5-yl]-(piperazin-1-yl)-methanone hydrochloride], the IC50 came to 9 nM.

The compound `COc1cccc(Cn2c(C)c(C)c3ccnc(CN(C)c4ccc(F)cc4)c32)c1` [Example 116, N-(4-fluorophenyl)-N-[1-(3-methoxybenzyl)-2,3-dimethyl-1H-pyrrolo[2,3-c]pyridin-7-ylmethyl]-methylamine hydrochloride] had an IC50 of 48 nM. Compared with the last compound, the IC50 is about 5.3-fold higher. `Cc1c(C)n(Cc2cccc(F)c2)c2c(N3CCc4ccccc4C3)nc(C(=O)N3CCN(C)CC3)cc12` [Example 832, [7-(3,4-dihydro-1H-isoquinolin-2-yl)-1-(3-fluorobenzyl)-2,3-dimethyl-1H-pyrrolo[2,3-c]pyridin-5-yl]-(4-methylpiperazin-1-yl)-methanone hydrochloride] yielded an IC50 of 31 nM. `C=CCn1c(C)c(C)c2ccnc(N3CCc4ccccc4C3)c21` [Example 493, 1-allyl-7-(1,2,3,4-tetrahydroisoquinolin-2-yl)-2,3-dimethyl-1H-pyrrolo[2,3-c]pyridine benzenesulfonate] returned an IC50 of 4 nM. Under `CSc1ccc(-c2nccc3c(C)c(C)n(Cc4ccc(C)cc4)c23)cc1` [Example 267, 2,3-dimethyl-1-(4-methylbenzyl)-7-(4-methylsulfanylphenyl)-1H-pyrrolo[2,3-c]pyridine hydrochloride] stands 110 nM. Turning to `Cc1[nH]c2c(N3CCc4ccc(F)cc4C3C)nccc2c1C` (stereo not shown) [Example 541, 7-fluoro-2-(2,3-dimethyl-1H-pyrrolo[2,3-c]pyridin-7-yl)-1-methyl-1,2,3,4-tetrahydroisoquinoline hydrochloride], the IC50 worked out at 350 nM. Under `Cc1c(C)n(Cc2ccncc2)c2c(N3CCc4ccccc4C3)nccc12` [Example 518, 1-(pyridin-4-ylmethyl)-7-(1,2,3,4-tetrahydroisoquinolin-2-yl)-2,3-dimethyl-1H-pyrrolo[2,3-c]pyridine hydrochloride] stands 179 nM; under `Cc1ccc(Cn2c(C)c(C)c3ccnc(NCc4ccc(Cl)cc4)c32)cc1` [Example 221, 7-(4-chlorobenzylamino)-2,3-dimethyl-1-(4-methylbenzyl)-1H-pyrrolo[2,3-c]pyridine hydrochloride], 630 nM; under `C#CCn1c(C)c(C)c2cc(C(N)=O)nc(N3CCc4ccccc4C3)c21` [Example 749, 7-(3,4-dihydro-1H-isoquinolin-2-yl)-2,3-dimethyl-1-(prop-2-ynyl)-1H-pyrrolo[2,3-c]pyridin-5-carboxamide], 1.5 nM. In the case of `Cc1c(C)n(Cc2ccc(C(C)(C)C)cc2)c2c(-c3ccc4ccccc4c3)nccc12` [Example 406, 1-(4-tert-butylbenzyl)-2,3-dimethyl-7-(naphthalen-2-yl)-1H-pyrrolo[2,3-c]pyridine hydrochloride] it was 189 nM; in that of `Cc1c(C)n(CC2CC2)c2c(N3CCc4ccccc4C3)nccc12` [Example 497, 1-cyclopropylmethyl-7-(1,2,3,4-tetrahydroisoquinolin-2-yl)-2,3-dimethyl-1H-pyrrolo[2,3-c]pyridine hydrochloride], 320 nM. For the compound `Cc1ccc(-c2nccc3c(C)c(C)n(CC4CCC4)c23)cc1` [Example 289, 1-cyclobutylmethyl-2,3-dimethyl-7-(p-tolyl)-1H-pyrrolo[2,3-c]pyridine hydrochloride], inhibition was half-maximal at 1340 nM (IC50). Against the preceding compound, the IC50 is about 4.2-fold higher. On to `Cc1c(C)n(Cc2ccc(F)cc2)c2c(CCc3ccccc3)nccc12` [Example 455, 1-(4-fluorobenzyl)-2,3-dimethyl-7-phenethyl-1H-pyrrolo[2,3-c]pyridine hydrochloride], for which the IC50 amounted to 400 nM. In turn, `Cc1cccc(Cn2c(C)c(C)c3cc(C(=O)N4CCCCC4)nc(N4CCc5ccccc5C4)c32)c1` [Example 798, [7-(3,4-dihydro-1H-isoquinolin-2-yl)-2,3-dimethyl-1-(3-methylbenzyl)-1H-pyrrolo[2,3-c]pyridin-5-yl]-(piperidin-1-yl)-methanone hydrochloride] yielded an IC50 of 220 nM. In the case of `Cc1c(C)n(Cc2ccccc2)c2c(N3CCc4ccccc4C3)nc(CO)cc12` [Example 850, [1-benzyl-7-(3,4-dihydro-1H-isoquinolin-2-yl)-2,3-dimethyl-1H-pyrrolo[2,3-c]pyridin-5-yl]-methanol hydrochloride] it was 53 nM. On to `Cc1c(C)n(Cc2cccc(F)c2)c2c(N3CCc4ccccc4C3)nc(CF)cc12` [Example 885, 2-[1-(3-fluorobenzyl)-5-fluoromethyl-2,3-dimethyl-1H-pyrrolo[2,3-c]pyridin-7-yl]-1,2,3,4-tetrahydroisoquinoline hydrochloride], for which inhibition was half-maximal at 217 nM (IC50). Compared with the last compound, the IC50 is about 4.1-fold higher. The compound `C=Cc1ccc(-c2nccc3c(C)c(C)n(Cc4cccc(OC)c4)c23)cc1` [Example 253, 2,3-dimethyl-1-(3-methoxybenzyl)-7-(4-vinylphenyl)-1H-pyrrolo[2,3-c]pyridine hydrochloride] gave an IC50 of 170 nM. Under `Cc1c(C)n(Cc2ccc(F)cc2)c2c(N3CCc4ccccc4C3)nc(C(=O)N3CCCCC3)cc12` [Example 797, [7-(3,4-dihydro-1H-isoquinolin-2-yl)-1-(4-fluorobenzyl)-2,3-dimethyl-1H-pyrrolo[2,3-c]pyridin-5-yl]-(piperidin-1-yl)-methanone hydrochloride] stands 287 nM; under `CCn1c(C)c(C)c2cc(C(=O)O)nc(N3CCc4ccccc4C3)c21` [Example 738, 7-(3,4-dihydro-1H-isoquinolin-2-yl)-1-ethyl-2,3-dimethyl-1H-pyrrolo[2,3-c]pyridin-5-carboxylic acid], 331 nM. Under `C=CCn1c(C)c(C)c2cc(N)nc(N3CCc4ccccc4C3)c21` [Example 846, 1-allyl-7-(3,4-dihydro-1H-isoquinolin-2-yl)-2,3-dimethyl-1H-pyrrolo[2,3-c]pyridin-5-amine hydrochloride] stands 139 nM; under `CCCn1c(C)c(C)c2ccnc(NCc3ccc(F)cc3)c21` [Example 228, 7-(4-fluorobenzylamino)-2,3-dimethyl-1-propyl-1H-pyrrolo[2,3-c]pyridine hydrochloride], 133 nM.

Consider `COCCn1c(C)c(C)c2ccnc(COc3ccc(F)cc3F)c21` [Example 34, 7-(2,4-difluorophenoxymethyl)-1-(2-methoxyethyl)-2,3-dimethyl-1H-pyrrolo[2,3-c]pyridine hydrochloride], for which inhibition was half-maximal at 1460 nM (IC50). `COc1cccc(Cn2c(C)c(C)c3ccnc(COc4ccc(F)cc4)c32)c1` [Example 4, 7-(4-fluorophenoxymethyl)-1-(3-methoxybenzyl)-2,3-dimethyl-1H-pyrrolo[2,3-c]pyridine hydrochloride] showed an IC50 of 150 nM. Under `Cc1c(CC#N)c2ccnc(N3CCc4ccccc4C3)c2n1Cc1ccccc1` [Example 624, [1-benzyl-7-(3,4-dihydro-1H-isoquinolin-2-yl)-2-methyl-1H -pyrrolo[2,3-c]pyridin-3-yl]-acetonitrile hydrochloride] stands 10 nM. In the case of `C=CCn1c(C)c(C)c2cc(C(=O)O)nc(N3CCc4ccccc4C3)c21` [Example 732, 1-allyl-7-(3,4-dihydro-1H-isoquinolin-2-yl)-2,3-dimethyl-1H-pyrrolo[2,3-c]pyridin-5-carboxylic acid] it was 22 nM; in that of `Cc1[nH]c2c(NCc3ccccc3)nccc2c1C` [Example 175, 7-benzylamino-2,3-dimethyl-1H-pyrrolo[2,3-c]pyridine hydrochloride], 80 nM; in that of `C=CCn1c(C)c(C)c2cc(C(=O)NCCO)nc(N3CCc4ccccc4C3)c21` [Example 837, 1-allyl-7-(3,4-dihydro-1H-isoquinolin-2-yl)-2,3-dimethyl-N-(2-hydroxyethyl)-1H-pyrrolo[2,3-c]pyridin-5-carboxamide hydrochloride], 29 nM. `Cc1[nH]c2c(N3CCc4cc(F)ccc4C3C)nccc2c1C` (stereo not shown) [Example 561, 6-fluoro-2-(2,3-dimethyl-1H-pyrrolo[2,3-c]pyridin-7-yl)-1-methyl-1,2,3,4-tetrahydroisoquinoline hydrochloride] showed an IC50 of 65 nM. `Cc1c(C)n(Cc2cccc(F)c2)c2c(CN(C)c3ccc(F)cc3)nccc12` [Example 114, N-[1-(3-fluorobenzyl)-2,3-dimethyl-1H-pyrrolo[2,3-c]pyridin-7-ylmethyl]-N-(4-fluorophenyl)-methylamine hydrochloride] returned an IC50 of 27 nM.

For `CCn1c(C)c(C)c2ccnc(-c3ccc4ccccc4c3)c21` [Example 404, 1-ethyl-2,3-dimethyl-7-(naphthalen-2-yl)-1H-pyrrolo[2,3-c]pyridine hydrochloride], it took 95 nM to reach half-maximal inhibition (IC50). Compound `Cc1c(C)n(Cc2cccc(F)c2)c2c(N3CCc4ccccc4C3)nc(C(=O)N3CCOCC3)cc12` [Example 779, [7-(3,4-dihydro-1H-isoquinolin-2-yl)-1-(3-fluorobenzyl)-2,3-dimethyl-1H-pyrrolo[2,3-c]pyridin-5-yl]-(morpholin-4-yl)-methanone hydrochloride] came in with an IC50 of 62 nM. `C=Cc1ccc(-c2nccc3c(C)c(C)n(CCC(C)C)c23)cc1` [Example 256, 2,3-dimethyl-1-(3-methylbutyl)-7-(4-vinylphenyl)-1H-pyrrolo[2,3-c]pyridine hydrochloride] came in with an IC50 of 310 nM. Compound `Cc1[nH]c2c(NCc3ccc(F)cc3)nc(C#N)cc2c1C` [Example 910, 7-(4-fluorobenzylamino)-2,3-dimethyl-1H-pyrrolo[2,3-c]pyridin-5-carbonitrile hydrochloride] registered an IC50 of 393 nM. `Cc1c(C)n(Cc2ccccc2)c2c(NCc3ccc(F)cc3)nccc12` [Example 214, 1-benzyl-7-(4-fluorobenzylamino)-2,3-dimethyl-1H-pyrrolo[2,3-c]pyridine hydrochloride]: the IC50 is 290 nM.
